# Measurements published in ChEMBL document CHEMBL3271996, “Potential antitumor agents. Synthesis of bifunctional alpha-methylene-gamma-butyrolactones” (J Med Chem, 1976).
# The source made the active and inactive calls. The calls are words filed in the database; no cut-off is given here.
# Experiments:
# L1210 [1] = test: Antitumor activity against mouse L1210 cells allografted in mouse at 100 to 400 mg/kg; assay type: functional, organism-based
# 9KB = test: (§1) Cytotoxicity against human 9KB cells; assay type: functional
# [2] = as §1; assay type: functional; conditions: read-out: ED50 (the source's name)
# L1210 [3] = test: Antitumor activity against mouse L1210 cells allografted in mouse; assay type: functional
# W256 [4] = test: Antitumor activity against rat Walker 256 cells allografted in rat assessed as inhibition of tumor growth at 120 mg/kg; assay type: functional; conditions: read-out: TGI
# Rattus norvegicus [5] = test: Toxicity in rat Walker 256 cells allografted rat at 240 mg/kg; assay type: organism-based; set-up: dose 240 mg/kg; conditions: in vivo
# HeLa = test: Cytotoxicity against human HeLa cells at 5 ug/ml; assay type: functional, cell-based
# Rattus norvegicus [6] = test: Toxicity in rat Walker 256 cells allografted rat at 37.5 mg/kg; assay type: organism-based; set-up: dose 37.5 mg/kg; conditions: in vivo
# W256 [7] = test: Antitumor activity against rat Walker 256 cells allografted in rat assessed as inhibition of tumor growth at 18.75 mg/kg; assay type: functional; conditions: read-out: TGI
# Rattus norvegicus [8] = organism: Rattus norvegicus; test: Toxicity in rat Walker 256 cells allografted rat; assay type: organism-based
# W256 [9] = test: Antitumor activity against rat Walker 256 cells allografted in rat; assay type: functional
Structure (SMILES),Activity (L1210 [1]),Activity (9KB),EC50 [2],further results
O=C1OCC/C1=C\OC(=O)c1ccccc1,inactive,–,–,–
O=C1OCC/C1=C\OCCO/C=C1\CCOC1=O,inactive,inactive,–,–
C=C1CC(CCCCCC2CC(=C)C(=O)O2)OC1=O (stereo not given),–,–,15 µg/mL,Activity (L1210 [3]): inactive
C=C1CC(CCCCC2CC(=C)C(=O)O2)OC1=O (stereo not given),–,–,32 µg/mL,Activity (L1210 [3]): inactive
CC1(O/C=C2\CCOC2=O)C=CC(=O)O1 (stereo not given),–,–,–,inhibition in vivo at 120 mg/kg (W256 [4]): 27%; Activity (Rattus norvegicus [5]): Toxic; Activity (HeLa): Active
C=C1CC(CCCC2CC(=C)C(=O)O2)OC1=O (stereo not given),–,–,4 µg/mL,Activity (Rattus norvegicus [6]): Toxic; inhibition in vivo at 18.75 mg/kg (W256 [7]): 45%; Activity (L1210 [3]): inactive
C=C1CC(CCCCCCC2CC(=C)C(=O)O2)OC1=O (stereo not given),–,–,7 µg/mL,Activity (L1210 [3]): inactive
O=C1OCC/C1=C\OCCCCCCO/C=C1\CCOC1=O,inactive,inactive,–,Activity (Rattus norvegicus [8]): Non-toxic; Activity (W256 [9]): inactive
O=C1OCC/C1=C\OCCCCCO/C=C1\CCOC1=O,inactive,–,–,–
O=C1OCC/C1=C\OCCCCO/C=C1\CCOC1=O,inactive,inactive,–,–
O=C1OCC/C1=C\OCCCO/C=C1\CCOC1=O,inactive,–,–,–
C=C1CCOC1=O [TULIPALINE A],–,–,16 µg/mL,–
O=C1OCC/C1=C\OCCCCCCCCCCO/C=C1\CCOC1=O,inactive,–,–,–
O=C(Cc1ccccc1)O/C=C1\CCOC1=O,inactive,inactive,–,–
Cc1ccc(S(=O)(=O)O/C=C2\CCOC2=O)cc1,inactive,inactive,–,–
